Source: the NIST ThermoML archive (doi:10.1021/je200146j)
Numbers after ± are expanded uncertainties.

Assay: mn = molality of the nth substance listed, in mol/kg
Conditions: 101 kPa, Liquid, m1 = 0.512; for speed of sound: Sing-around technique in a fixed-path interferometer; for mass density: Vibrating tube method

Structure (SMILES)	speed of sound (298.15 K)	mass density (298.15 K)	speed of sound (303.15 K)	mass density (303.15 K)	speed of sound (308.15 K)	mass density (308.15 K)	speed of sound (313.15 K)	mass density (313.15 K)	speed of sound (318.15 K)	mass density (318.15 K)	speed of sound (323.15 K)	mass density (323.15 K)
O=S(=O)([O-])[O-].[K+].[K+] [potassium sulfate] + O	1563.6 ± 4.1 m/s	1063.81 ± 1 kg/m3	1571.6 ± 4.1 m/s	1062.02 ± 1 kg/m3	1580.3 ± 4.1 m/s	1060.06 ± 1 kg/m3	1587.6 ± 4.1 m/s	1057.74 ± 1 kg/m3	1593.5 ± 4.1 m/s	1055.14 ± 1 kg/m3	1598.3 ± 4.1 m/s	1052.95 ± 1 kg/m3
O=[N+]([O-])[O-].[K+] [potassium nitrate] + O	1517.8 ± 4.1 m/s	1027.98 ± 1 kg/m3	1526.8 ± 4.1 m/s	1026.22 ± 1 kg/m3	1536.3 ± 4.1 m/s	1024.1 ± 1 kg/m3	1544.4 ± 4.1 m/s	1022.05 ± 1 kg/m3	1551.1 ± 4.1 m/s	1020.2 ± 1 kg/m3	1556.6 ± 4.1 m/s	1018.2 ± 1 kg/m3
